Source: US20260008793A1, “IONIZABLE CATIONIC LIPIDS INCORPORATING SILICON” (ALDEXCHEM KFT., priority 2022, published 2026)

Columns and labels:
HeLa cells = experiment: Transfection efficiency with Luciferase-mRNA, Nano-Glo assay (Method A); format: cell-based; conditions: 100 ng Luciferase (SecNLuc) mRNA, 24 h, luminescence; also: unit not given here
Method in brief: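 Luminescence of secreted NanoLuc in culture medium, read ~3 min after Nano-Glo reagent, reports transfection. HeLa cells grown to ~80% confluence got 100/50/10 ng mRNA per well as LNPs for 24 h, with a parallel resazurin toxicity readout.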

[1] = Encapsulation efficiency, RiboGreen RNA assay (Method A); format: physicochemical; conditions: LNP formulated by Method A
Method in brief: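 mRNA-LNPs (Method A formulation) diluted in TE buffer pH 7.4/7.5 and measured in duplicate with and without Triton lysis (37° C., 10 min). RiboGreen fluorescence read at ex 480/em 525. mRNA quantified against a standard curve.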

## CCCCCCCCO[Si](C)(C)O[Si](C)(C)OC(CCCCCCC)OCCCCCCN(CCCCO)CCCCCCOC(=O)C(CCCCCC)CCCCCCCC (stereo not shown) [Example 135, 15-heptyl-7-(4-hydroxybutyl)-17,17,19,19-tetramethyl-14,16,18,20-tetraoxa-7-aza-17,19-disilaoctacosyl 2-hexyldecanoate]
HeLa cells
  Transfection* (Method A = 100 ng mRNA): 538348
[1]
  EE (%): 91%

## CCCCCCCCCC(OCCCCCCN(CCCCO)CCCCCCOC(CCCCCCCCC)O[Si](C)(C)CCCCCC)O[Si](C)(C)CCCCCC (stereo not shown) [Example 104, 5-(6-((1-((hexyldimethylsilyl)oxy)decyl)oxy)hexyl)-15,15-dimethyl-13-nonyl-12,14-dioxa-5-aza-15-silahenicosan-1-ol]
HeLa cells
  Transfection* (Method A = 100 ng mRNA): 27631.5
[1]
  EE (%): 96%

## CCCCCCCCOC(CCCCCN(CCCCO)CCC[C@@H](C)C1CCC2C3CCC4C[C@H](OC)CC[C@]4(C)C3CC[C@@]21C)O[Si](C)(C)CCCCCCCC (stereo partly drawn) [Example 214, 4-((6-((dimethyl(octyl)silyl)oxy)-6-(octyloxy)hexyl)((4R)-4-((3R,10S,13R)-3-methoxy-10,13-dimethylhexadecahydro-1H-cyclopenta[a]phenanthren-17-yl)pentyl)amino)butan-1-ol]
HeLa cells
  Transfection* (Method A = 100 ng mRNA): 318542
[1]
  EE (%): 97%

## CCCCCCCCOC(CCCCCN(CCCCO)CCCCCCOC(=O)C(CCCCCCCC)SCCCCC)O[Si](C)(C)OCCCCCCCC (stereo not shown) [Example 179, 7-(4-hydroxybutyl)-15,15-dimethyl-13-(octyloxy)-14,16-dioxa-7-aza-15-silatetracosyl 2-(pentylthio)decanoate]
HeLa cells
  Transfection* (Method A = 100 ng mRNA): 41726
[1]
  EE (%): 94%

## CCCCCCCCOC(CCCCCCC)O[Si](C)(C)CCCCCCN(CCCCO)CCCCCC[Si](C)(C)OC(CCCCCCC)OCCCCCCCC (stereo not shown) [Example 113, 5-(6-(dimethyl((1-(octyloxy)octyl)oxy)silyl)hexyl)-14-heptyl-12,12-dimethyl-13,15-dioxa-5-aza-12-silatricosan-1-ol]
HeLa cells
  Transfection* (Method A = 100 ng mRNA): 200295
[1]
  EE (%): 94%

## CC/C=C\C/C=C\C/C=C\C/C=C\C/C=C\CCCCN(CCCCO)CCCCCCO[Si](C)(C)OC(CCCCCCC)OCCCCCCCC (stereo not shown) [Example 205, 15-heptyl-5-((5Z,8Z,11Z,14Z,17Z)-icosa-5,8,11,14,17-pentaen-1-yl)-13,13-dimethyl-12,14,16-trioxa-5-aza-13-silatetracosan-1-ol]
HeLa cells
  Transfection* (Method A = 100 ng mRNA): 95124
[1]
  EE (%): 97%

## CCCCCCCCO[Si](C)(C)O[Si](C)(C)OC(CCCCCCC)OCCCCCCN(CCCCO)CCC[C@@H](C)C1CCC2C3CCC4C[C@H](OC)CC[C@]4(C)C3CC[C@@]21C (stereo partly drawn) [Example 221, 13-heptyl-5-((4R)-4-((3R,10S,13R)-3-methoxy-10,13-dimethylhexadecahydro-1H-cyclopenta[a]phenanthren-17-yl)pentyl)-15,15,17,17-tetramethyl-12,14,16,18-tetraoxa-5-aza-15,17-disilahexacosan-1-ol]
HeLa cells
  Transfection* (Method A = 100 ng mRNA): 73949
[1]
  EE (%): 96%

## CCCCCCCCCCSC(CCCC)C(=O)OCCCCCCN(CCCCO)CCCCCCOC(CCCCCCC)O[Si](C)(C)OCCCCCCCC (stereo not shown) [Example 169, 15-heptyl-7-(4-hydroxybutyl)-17,17-dimethyl-14,16,18-trioxa-7-aza-17-silahexacosyl 2-(decylthio)hexanoate]
HeLa cells
  Transfection* (Method A = 100 ng mRNA): 1379853
[1]
  EE (%): 95%

## CCCCCCCCO[Si](C)(C)OC(CCCCCCC)OCCCCCCN(CCCCO)CCC[C@@H](C)C1CCC2C3CCC4C[C@H](OC)CC[C@]4(C)C3CC[C@@]21C (stereo partly drawn) [Example 217, 13-heptyl-5-((4R)-4-((3R,10S,13R)-3-methoxy-10,13-dimethylhexadecahydro-1H-cyclopenta[a]phenanthren-17-yl)pentyl)-15,15-dimethyl-12,14,16-trioxa-5-aza-15-silatetracosan-1-ol]
HeLa cells
  Transfection* (Method A = 100 ng mRNA): 2231945
[1]
  EE (%): 96%

## CCCCCCCCCCSC(CCCC)C(=O)OCCCCCCN(CCCCO)CCCCCC(OCCCCCCCC)O[Si](C)(C)OCCCCCCCC (stereo not shown) [Example 168, 7-(4-hydroxybutyl)-15,15-dimethyl-13-(octyloxy)-14,16-dioxa-7-aza-15-silatetracosyl 2-(decylthio)hexanoate]
HeLa cells
  Transfection* (Method A = 100 ng mRNA): 74333
[1]
  EE (%): 96%

## CCCCCCCCC(CCCCCC)C(=O)OCCCCCCN(CCCCO)CCCCCCOC(CCCCCCC)O[Si](C)(C)O[Si](C)(C)CCCCCCCC (stereo not shown) [Example 133, 15-heptyl-7-(4-hydroxybutyl)-17,17,19,19-tetramethyl-14,16,18-trioxa-7-aza-17,19-disilaheptacosyl 2-hexyldecanoate]
HeLa cells
  Transfection* (Method A = 100 ng mRNA): 73879.5
[1]
  EE (%): 97%

## CC/C=C\C/C=C\C/C=C\C/C=C\C/C=C\CCCCN(CCCCO)CCCCCCOC(CCCCCCC)O[Si](C)(C)O[Si](C)(C)CCCCCCCC (stereo not shown) [Example 199, 13-heptyl-5-((5Z,8Z,11Z,14Z,17Z)-icosa-5,8,11,14,17-pentaen-1-yl)-15,15,17,17-tetramethyl-12,14,16-trioxa-5-aza-15,17-disilapentacosan-1-ol]
HeLa cells
  Transfection* (Method A = 100 ng mRNA): 144984
[1]
  EE (%): 97%

## CC/C=C\C/C=C\C/C=C\C/C=C\C/C=C\CCCCN(CCCCO)CCCCCCOC(CCCCCCC)O[Si](C)(C)OCC(CCCCCC)CCCCCCCC (stereo not shown) [Example 203, 13-heptyl-18-hexyl-5-((5Z,8Z,11Z,14Z,17Z)-icosa-5,8,11,14,17-pentaen-1-yl)-15,15-dimethyl-12,14,16-trioxa-5-aza-15-silahexacosan-1-ol]
HeLa cells
  Transfection* (Method A = 100 ng mRNA): 161894
[1]
  EE (%): 94%

## CCCCCCCCCCSC(CCCC)C(=O)OCCCCCCN(CCCCO)CCCCCC(OCCCCCCCC)O[Si](C)(C)CCCCCCCC (stereo not shown) [Example 166, 6-((6-((dimethyl(octyl)silyl)oxy)-6-(octyloxy)hexyl)(4-hydroxybutyl)amino)hexyl 2-(decylthio)hexanoate]
HeLa cells
  Transfection* (Method A = 100 ng mRNA): 791474
[1]
  EE (%): 94%

## CCCCCCCC[Si](C)(C)OC(CCCCCCC)OCCCCCCN(CCCCCCOC(CCCCCCC)O[Si](C)(C)CCCCCCCC)CCC1CCCN1C (stereo not shown) [Example 120, 6-((1-((dimethyl(octyl)silyl)oxy)octyl)oxy)-N-(6-((1-((dimethyl(octyl)silyl)oxy)octyl)oxy)hexyl)-N-(2-(1-methylpyrrolidin-2-yl)ethyl)hexan-1-amine]
HeLa cells
  Transfection* (Method A = 100 ng mRNA): 469598.5
[1]
  EE (%): 98%

## CCCCCCCCOC(CCCCCCCC)O[Si](C)(C)OCCCCCCN(CCCCO)CCCCCCOC(=O)C(CCCCCC)CCCCCCCC (stereo not shown) [Example 143, 7-(4-hydroxybutyl)-15,15-dimethyl-17-octyl-14,16,18-trioxa-7-aza-15-silahexacosyl 2-hexyldecanoate]
HeLa cells
  Transfection* (Method A = 100 ng mRNA): 4825007
[1]
  EE (%): 95%

## CCCCCCCCOC(CCCCCN(CCCCO)CCCCCCOC(=O)C(CCCCCCCC)SCCCCC)O[Si](C)(C)CCCCCCCC (stereo not shown) [Example 177, 6-((6-((dimethyl(octyl)silyl)oxy)-6-(octyloxy)hexyl)(4-hydroxybutyl)amino)hexyl 2-(pentylthio)decanoate]
HeLa cells
  Transfection* (Method A = 100 ng mRNA): 691264
[1]
  EE (%): 98%

## CCCCCCCCOC(CCCCCN(CCCCO)CCCCCCOC(=O)C(CCCCCCCC)SCCCCC)O[Si](C)(C)O[Si](C)(C)OCCCCCCCC (stereo not shown) [Example 183, 6-((4-hydroxybutyl)(6-(octyloxy)-6-((1,1,3,3-tetramethyl-3-(octyloxy)disiloxaneyl)oxy)hexyl)amino)hexyl 2-(pentylthio)decanoate]
HeLa cells
  Transfection* (Method A = 100 ng mRNA): 968235
[1]
  EE (%): 97%

## CC/C=C\C/C=C\C/C=C\C/C=C\C/C=C\CCCCN(CCCCO)CCCCCCOC(CCCCCCC)O[Si](C)(C)OCCCCCCCC (stereo not shown) [Example 197, 13-heptyl-5-((5Z,8Z,11Z,14Z,17Z)-icosa-5,8,11,14,17-pentaen-1-yl)-15,15-dimethyl-12,14,16-trioxa-5-aza-15-silatetracosan-1-ol]
HeLa cells
  Transfection* (Method A = 100 ng mRNA): 497865
[1]
  EE (%): 97%

## CCCCCCCCC(CCCCCC)C(=O)OCCCCCCN(CCCCO)CCCCCCOC(=O)C(CCCCCC)CCCCCCCC (stereo not shown) [ALC-0315, reference compound]
HeLa cells
  Transfection* (Method A = 100 ng mRNA): 836793
[1]
  EE (%): 94%

## CCCCCCCC[Si](C)(C)OC(CCCCCCC)OCCCCCCN(CCCCO)CCCCCCOC(CCCCCCC)O[Si](C)(C)CCCCCCCC (stereo not shown) [Example 102, 5-(6-((1-((dimethyl(octyl)silyl)oxy)octyl)oxy)hexyl)-13-heptyl-15,15-dimethyl-12,14-dioxa-5-aza-15-silatricosan-1-ol]
HeLa cells
  Transfection* (Method A = 100 ng mRNA): 129513
[1]
  EE (%): 96%

## CCCCCCCCCC(OCCCCCC)O[Si](C)(C)OCCCCCCN(CCCCO)CCCCCCOC(=O)C(CCCCCC)CCCCCCCC (stereo not shown) [Example 144, 18-(4-hydroxybutyl)-10,10-dimethyl-8-nonyl-7,9,11-trioxa-18-aza-10-silatetracosan-24-yl 2-hexyldecanoate]
HeLa cells
  Transfection* (Method A = 100 ng mRNA): 5688575
[1]
  EE (%): 97%

## CCCCCCCCOC(CCCCCN(CCO)CCCCCCCC(=O)OC(CCCCCCCC)CCCCCCCC)O[Si](C)(C)CCCCCCCC (stereo not shown) [Example 189, heptadecan-9-yl 8-((6-((dimethyl(octyl)silyl)oxy)-6-(octyloxy)hexyl)(2-hydroxyethyl)amino)octanoate]
HeLa cells
  Transfection* (Method A = 100 ng mRNA): 45731
[1]
  EE (%): 94%
